System: MDA-MB-231
Assay: Whole-cell gold uptake by ICP-OES
Type: cell-based
Settings: MDA-MB-231, 5 μM, 24 h
Procedure: We next performed cellular uptake studies to determine what percentage of the compounds were getting into the cell after treatment. Given that most therapeutic targets are localized receptors on the plasma membrane, quantifying the amount of gold compounds in cellular fractions and investigating their mode of uptake is crucial. For whole-cell uptake studies, MDA-MB-231 were treated with all 10 compounds and Auranofin at 5 μM for 24 h (Fig. 5A). Auranofin is the only gold-based therapeutic to be clinically approved, therefor we used this drug as a benchmark for comparison.[67] After treatment, the cells were washed with PBS, centrifuged, and digested with 0.5 mL of conc. […] Given that these complexes readily react with nucleophilic biological molecules and the lack of accumulation in the nuclear fraction, it is evident that the mechanism of action of this class of compounds is differentiated from the clinically available platinum agents. […]
positive control. When ready for analysis, the media were removed and the wells washed with 5 mL of PBS. […] The cells were resuspended in 2 mL of fresh media, counted, and reconstituted to a concentration of 1 x 10^5 cells/mL. […]
Compound 2a was prepared as a stock in DMSO and added to the respective wells at the specified concentrations of 0.1, 1, and 10 µM and treated for 12 h. […] The samples were cooled and stored at −20 °C until ready for use. […]

Row | SMILES | Intracellular uptake [pmol per million cells]
1 | C[N+](C)=C1[S][Au-2]2([S]1)[c]1ccccc1C(=O)c1cccc[n+]12.F[P-](F)(F)(F)(F)F (centres unmarked) [1a] | 3017
2 | C[N+](C)=C1[S][Au-2]2([S]1)[c]1ccccc1Cc1cccc[n+]12.F[P-](F)(F)(F)(F)F (centres unmarked) [2a] | 3267
